Measurements reported in patent US9949479B2 (priority 2015, dated 2018).
≈ marks a conversion by molar mass, not a printed value.

Tested on: Fusarium graminearum
Experiment: microbe, parasite or virus in culture
Format: cell-based

SMILES: CC1(C)CCC(Cc2ccc(Cl)cc2)C1(O)Cn1cncn1 (stereo not drawn) [Metconazole]
- ED50 (F.g carbendazim-resistant strains): 0.113 µg/mL (≈ 0.353 µM)
- ED50 (F.g phenamacril-resistant strains): 0.115 µg/mL (≈ 0.36 µM)
- inhibition at 0.125 µg/mL (Fusarium graminearum, read-out: inhibitory effect on hyphal growth): > 50%
